The structures appear in SMILES notation.

The experiment addresses T1, TLR7 (Homo sapiens, UniProt Q9NYK1).
T1 construct: host or cells: HEK-Blue cells (human HEK) co-expressing TLR7 and an NF-kB/AP1-inducible SEAP reporter
T1 sequence (Q9NYK1 27-1049): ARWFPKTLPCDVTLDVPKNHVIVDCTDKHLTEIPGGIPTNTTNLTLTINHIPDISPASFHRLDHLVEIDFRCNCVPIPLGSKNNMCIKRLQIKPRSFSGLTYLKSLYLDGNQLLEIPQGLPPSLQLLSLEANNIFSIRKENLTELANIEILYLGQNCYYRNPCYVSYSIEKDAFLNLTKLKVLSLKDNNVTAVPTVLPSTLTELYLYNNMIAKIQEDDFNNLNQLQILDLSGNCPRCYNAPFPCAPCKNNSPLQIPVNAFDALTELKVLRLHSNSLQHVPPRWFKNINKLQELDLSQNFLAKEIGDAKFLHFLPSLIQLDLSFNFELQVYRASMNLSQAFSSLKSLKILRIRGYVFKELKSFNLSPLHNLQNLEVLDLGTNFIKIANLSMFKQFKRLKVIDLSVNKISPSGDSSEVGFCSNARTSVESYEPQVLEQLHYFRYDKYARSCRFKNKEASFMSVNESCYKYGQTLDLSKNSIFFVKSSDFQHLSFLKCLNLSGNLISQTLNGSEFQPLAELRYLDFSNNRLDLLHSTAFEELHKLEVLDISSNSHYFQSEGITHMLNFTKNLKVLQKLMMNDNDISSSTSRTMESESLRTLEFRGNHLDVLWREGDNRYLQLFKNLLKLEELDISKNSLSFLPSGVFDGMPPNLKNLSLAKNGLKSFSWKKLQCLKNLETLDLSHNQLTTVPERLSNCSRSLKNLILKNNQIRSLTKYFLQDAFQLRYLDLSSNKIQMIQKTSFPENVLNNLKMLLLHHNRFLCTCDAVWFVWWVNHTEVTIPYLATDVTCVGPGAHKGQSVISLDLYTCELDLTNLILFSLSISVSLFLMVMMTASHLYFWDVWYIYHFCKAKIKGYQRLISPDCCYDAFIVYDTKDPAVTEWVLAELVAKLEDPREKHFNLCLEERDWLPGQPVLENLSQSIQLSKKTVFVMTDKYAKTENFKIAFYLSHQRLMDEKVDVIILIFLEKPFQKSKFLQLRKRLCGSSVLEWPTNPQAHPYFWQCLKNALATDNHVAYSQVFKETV
The experiment can be described thus: In vitro human TLR7 binding reporter assay (HEK-Blue, NF-kB/AP1-inducible SEAP). Type of experiment: cell-based. The settings on record: activity range symbols. The gist of the method: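 Reporter cells are plated at 15,000 per well and rested 24 h. Next day, test compounds or DMSO are dispensed, followed by 18 h incubation at 37 °C, 5% CO2.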
Broadly, the EC50 is the concentration at which the effect is half-maximal. A low value points to greater potency. On to `CCN(Cc1nc2c(N)nc3cc(-c4cccnc4F)ccc3c2[nH]1)C(C)=O` [Compound 175, N-[[4-amino-7-(2-fluoropyridin-3-yl)-1H-imidazo[4,5-c]quinolin-2-yl]methyl]-N-ethylacetamide], for which the 50% effective concentration (EC50) was greater than 100 µM.

Molecule `CCN(Cc1nc2c(N)nc3ccccc3c2[nH]1)C(C)=O` [Compound 176] registered an EC50 greater than 100 µM.

With `CCN(Cc1nc2c(N)nc3cc(Br)ccc3c2[nH]1)C(C)=O` [Compound 177], the half-maximal effective concentration (EC50) was greater than 100 µM. As for `CCN(Cc1nc2c(N)nc3cc(Cl)ccc3c2[nH]1)C(C)=O` [Compound 179, N-[(4-amino-7-chloro-1H-imidazo[4,5-c]quinolin-2-yl)methyl]-N-ethylacetamide], the figure is greater than 100 µM. Next, `CCN(Cc1nc2c(N)nc3cc(-n4cccn4)ccc3c2[nH]1)C(C)=O` [Compound 180, N-[(4-amino-7-pyrazol-1-yl-1H-imidazo[4,5-c]quinolin-2-yl)methyl]-N-ethylacetamide]: greater than 100 µM. Next, `CCN(Cc1nc2c(N)nc3cc(C4=CCCC4)ccc3c2[nH]1)C(C)=O` [Compound 183]: greater than 100 µM; `CC(=O)N(C)Cc1nc2c(N)nc3ccccc3c2[nH]1` [Compound 187]: 1 to 20 µM. On to `COC(=O)CCCn1c(CN(C)C(C)=O)nc2c(N)nc3ccccc3c21` [Compound 188], for which the concentration for a half-maximal effect (EC50) was greater than 100 µM. Next, `CCN(Cc1nc2c(N)nc3cc(C4CC4)ccc3c2n1Cc1ccc(OC)cc1)C(C)=O` [Compound 190]: greater than 100 µM; `CCN(Cc1nc2c(N)nc3ccccc3c2n1CCCNC(=O)OC(C)(C)C)C(C)=O` [Compound 191]: greater than 100 µM; `CCN(Cc1nc2c(N)nc3ccc(Br)cc3c2[nH]1)C(C)=O` [Compound 194]: greater than 100 µM. With `CCN(Cc1nc2c(N)nc3cc(N4CCNC4=O)ccc3c2n1Cc1ccc(OC)cc1)C(C)=O` [Compound 196], the EC50 was greater than 100 µM. Next, `CCN(Cc1nc2c(N)nc3ccc(Cl)cc3c2[nH]1)C(C)=O` [Compound 197]: greater than 100 µM.

Molecule `CCOC(=O)c1cc2c(cc1Br)nc(N)c1nc(CN(CC)C(C)=O)[nH]c12` [Compound 198] showed an EC50 greater than 100 µM.

As for `CCN(Cc1nc2c(N)nc3ccc(Br)cc3c2[nH]1)C(=O)OC` [Compound 200], the EC50 was greater than 100 µM. As for `CCN(Cc1nc2c(N)nc3ccc(Br)cc3c2[nH]1)S(C)(=O)=O` [Compound 201], the figure is greater than 100 µM; as for `CCN(Cc1nc2c(N)nc3ccc(Br)cc3c2[nH]1)S(=O)(=O)c1ccc(C)cc1` [Compound 202], greater than 100 µM. `CCN(Cc1nc2c(N)nc3ccc(Br)cc3c2[nH]1)C(=O)C(C)C` [Compound 203] displayed a 50% effective concentration (EC50) greater than 100 µM. Next, `CCN(Cc1nc2c(N)nc3ccc(Br)cc3c2[nH]1)C(=O)c1ccccc1` [Compound 204]: greater than 100 µM; `CCN(Cc1nc2c(N)nc3ccccc3c2n1CCC(=O)N1CCOCC1)C(=O)OC(C)(C)C` [Compound 205]: greater than 100 µM; `CCN(Cc1nc2c(N)nc3ccc(-n4cccn4)cc3c2[nH]1)C(C)=O` [Compound 207]: greater than 100 µM. `CCN(Cc1nc2c(N)nc3cc(Br)ccc3c2n1CCCC(=O)N1CCN(C)CC1)C(C)=O` [Compound 209] yielded a concentration giving a half-maximal response (EC50) greater than 100 µM. Take `CCN(Cc1nc2c(N)nc3cc(Br)ccc3c2n1CCCC(=O)NC)C(C)=O` [Compound 210]: the 50% effective concentration (EC50) was greater than 100 µM. As for `CCN(Cc1nc2c(N)nc3ccccc3c2n1CCC(=O)N1CCN(C(=O)OC(C)(C)C)CC1)C(=O)OC(C)(C)C` [Compound 211], the figure is greater than 100 µM; as for `CCN(Cc1nc2c(N)nc3ccccc3c2n1CCC(=O)N1CCN(C(=O)OC(C)(C)C)CC1)C(C)=O` [Compound 212], greater than 100 µM; as for `CCN(Cc1nc2c(N)nc3cc(Br)ccc3c2n1CCCC(=O)N(C)C)C(C)=O` [Compound 213], greater than 100 µM.

Turning to `CCN(Cc1nc2c(N)nc3cc(Br)ccc3c2n1CCCC(=O)N1CCOCC1)C(C)=O` [Compound 214], the concentration giving a half-maximal response (EC50) was greater than 100 µM.

In turn, `CN(C)C(=O)CCCn1c(CN2CCCC2=O)nc2c(N)nc3cc(Br)ccc3c21` [Compound 215] returned an EC50 greater than 100 µM.

The molecule `COC(=O)CCCn1c(CN2CCCC2=O)nc2c(N)nc3cc(Cl)ccc3c21` [Compound 216] yielded a concentration for a half-maximal effect (EC50) greater than 100 µM. As for `CCN(Cc1nc2c(N)nc3cc(Cl)ccc3c2n1CCCC(=O)NC)C(C)=O` [Compound 217], the figure is greater than 100 µM; as for `CCN(Cc1nc2c(N)nc3cc(Br)ccc3c2n1CCCC(=O)OC)C(C)=O` [Compound 218], greater than 100 µM; as for `CCN(Cc1nc2c(N)nc3cc(Cl)ccc3c2n1CCCC(=O)OC)C(C)=O` [Compound 219], greater than 100 µM. In the case of `CCN(Cc1nc2c(N)nc3cc(Cl)ccc3c2n1CCCC(=O)N1CCOCC1)C(C)=O` [Compound 220], the concentration for a half-maximal effect (EC50) is greater than 100 µM. As for `CCN(Cc1nc2c(N)nc3cc(Cl)ccc3c2n1CCCC(=O)N1CCN(C)CC1)C(C)=O` [Compound 221], the figure is greater than 100 µM; as for `CCN(Cc1nc2c(N)nc3cc(Cl)ccc3c2n1CCCC(=O)N1CCCC1)C(C)=O` [Compound 222], greater than 100 µM; as for `CCN(Cc1nc2c(N)nc3ccccc3c2n1CCC(=O)N1CCS(=O)(=O)CC1)C(=O)OC(C)(C)C` [Compound 223], 20 to 100 µM.

In turn, `CCNCc1nc2c(N)nc3cc(Br)ccc3c2[nH]1` [Compound 225] yielded a half-maximal effective concentration (EC50) greater than 100 µM. Next, `CCN(Cc1nc2c(N)nc3cc(C(F)(F)F)ccc3c2n1CCCC(=O)NC)C(=O)OC(C)(C)C` [Compound 226]: greater than 100 µM; `CCNCc1nc2c(N)nc3cc(C(F)(F)F)ccc3c2n1CCCC(=O)OC` [Compound 227]: 20 to 100 µM. As for `CCN(Cc1nc2c(N)nc3cc(C(F)(F)F)ccc3c2n1CCCC(=O)N1CCOCC1)C(=O)OC(C)(C)C` [Compound 228], the figure is greater than 100 µM; as for `CCN(Cc1nc2c(N)nc3cc(C(F)(F)F)ccc3c2n1CCCC(=O)OC)C(C)=O` [Compound 229], greater than 100 µM; as for `COc1ccc(-c2ccc3c(c2)nc(N)c2nc(CN4CCCC4=O)[nH]c23)cc1` [Compound 230], greater than 100 µM.

The molecule `CC(=O)NCc1nc2c(N)nc3ccccc3c2[nH]1` [Compound 233] returned a 50% effective concentration (EC50) of 1 to 20 µM. As for `Nc1nc2ccccc2c2[nH]c(CN3CCCC3=O)nc12` [Compound 278], the figure is 20 to 100 µM; as for `Nc1nc2cc(-c3cccnc3)ccc2c2[nH]c(CN3CCCC3=O)nc12` [Compound 279, 1-[(4-amino-7-pyridin-3-yl-1H-imidazo[4,5-c]quinolin-2-yl)methyl]pyrrolidin-2-one], greater than 100 µM; as for `Nc1nc2cc(-c3ccccc3)ccc2c2[nH]c(CN3CCCC3=O)nc12` [Compound 280, 1-[(4-amino-7-phenyl-1H-imidazo[4,5-c]quinolin-2-yl)methyl]pyrrolidin-2-one], greater than 100 µM. As to `Nc1nc2cc(-c3ccccc3Cl)ccc2c2[nH]c(CN3CCCC3=O)nc12` [Compound 281, 1-[[4-amino-7-(2-chlorophenyl)-1H-imidazo[4,5-c]quinolin-2-yl]methyl]pyrrolidin-2-one], the EC50 was greater than 100 µM. As for `Cc1ccccc1-c1ccc2c(c1)nc(N)c1nc(CN3CCCC3=O)[nH]c12` [Compound 282, 1-[[4-amino-7-(2-methylphenyl)-1H-imidazo[4,5-c]quinolin-2-yl]methyl]pyrrolidin-2-one], the figure is greater than 100 µM. Next, `COc1ccccc1-c1ccc2c(c1)nc(N)c1nc(CN3CCCC3=O)[nH]c12` [Compound 283, 1-[[4-amino-7-(2-methoxyphenyl)-1H-imidazo[4,5-c]quinolin-2-yl]methyl]pyrrolidin-2-one]: greater than 100 µM; `Nc1nc2cc(-c3ccccc3F)ccc2c2[nH]c(CN3CCCC3=O)nc12` [Compound 284, 1-[[4-amino-7-(2-fluorophenyl)-1H-imidazo[4,5-c]quinolin-2-yl]methyl]pyrrolidin-2-one]: greater than 100 µM; `Nc1nc2cc(-c3cccc(Cl)c3)ccc2c2[nH]c(CN3CCCC3=O)nc12` [Compound 285, 1-[[4-amino-7-(3-chlorophenyl)-1H-imidazo[4,5-c]quinolin-2-yl]methyl]pyrrolidin-2-one]: greater than 100 µM.

In the case of `Cc1cccc(-c2ccc3c(c2)nc(N)c2nc(CN4CCCC4=O)[nH]c23)c1` [Compound 286, 1-[[4-amino-7-(3-methylphenyl)-1H-imidazo[4,5-c]quinolin-2-yl]methyl]pyrrolidin-2-one], the EC50 was greater than 100 µM.
